Measurements: US20170311599A1, “Target for Anthelmintic Development, and Anthelmintics Utilizing the Same” (The University of Toledo, priority 2016, published 2017)
Entries after “also recorded” stand apart in the source; their conditions may differ. Like-named read-outs stand apart in the source and are kept apart here.

How the values were obtained:
[1] = test system: flea (Ctenocephalides felis); experiment: Flea (FF) membrane feed assay (adult); format: in vivo; conditions: adult fleas fed treated blood, 24 hours, lowest dose causing mortality ≧50%
Method: For the flea (FF) membrane feed assay (adult), compounds were dissolved in DMSO and aliquots were added to citrated bovine blood in membrane covered wells warmed to 37° C. Adult fleas were newly emerged (3-7 days) and unfed. Feeding wells containing approximately 10 adult fleas were placed onto the treated blood wells, and the fleas were allowed to feed on the treated blood for 24 hours. […] Each compound was tested at half-log intervals, and endpoint data was recorded as Minimum Effective Concentration (MEC) in μM. MEC is a subjective visual assessment of organism viability, and is the lowest dose to cause mortality ≧50%.

[2] = test system: heartworm (Dirofilaria immitis) microfilaria; experiment: Heartworm (HW) motility assay (microfilaria); format: in vivo; parameters: activity against heartworm: dose or concentration left out as unconfirmed; conditions: for HW (n = 2 mean), minimum efficacious dose (MED): microfilaria, 72 hour incubation, >50% decrease in motility
Method: For the heartworm (HW) motility assay (microfilaria), compounds were dissolved in DMSO and half log dilutions were placed into individual wells. […] […] The data reported is minimum efficacious dose (MED), which is the lowest concentration where there was a >50% decrease in motility compared to the DMSO controls.

[3] = test system: Haemonchus contortus exsheathed L3 larvae; experiment: Gastrointestinal nematode (HC) motility assay (exsheathed L3); format: in vivo; conditions: exsheathed L3, 96 hours, >50% decrease in motility
Method: For the gastrointestinal nematode (HC) motility assay ([…]3), compounds were dissolved in DMSO and half log dilutions were placed into individual wells. To each well was added approximately 100 Haemonchus contortus […]3 larvae in a buffered nutrient media containing glucose and antibiotic panel resulting in a final concentration curve ranging from 100 μM to 1 nM. […] The data reported is minimum efficacious dose (MED), which is the lowest concentration where there was a >50% decrease in motility compared to the DMSO controls.

[4] = biological target: C. elegans 5-HT1-like receptor SER-4 (Caenorhabditis elegans, UniProt G5EGH0); experiment: in vivo; format: in vivo; conditions: for activity from observations of nematode locomotion: FIGS. 9A-9B; for effect on locomotion: SER-4 in cholinergic motor neurons
Sequence of C. elegans 5-HT1-like receptor SER-4 (Caenorhabditis elegans, UniProt G5EGH0) (G5EGH0 entry or part of it): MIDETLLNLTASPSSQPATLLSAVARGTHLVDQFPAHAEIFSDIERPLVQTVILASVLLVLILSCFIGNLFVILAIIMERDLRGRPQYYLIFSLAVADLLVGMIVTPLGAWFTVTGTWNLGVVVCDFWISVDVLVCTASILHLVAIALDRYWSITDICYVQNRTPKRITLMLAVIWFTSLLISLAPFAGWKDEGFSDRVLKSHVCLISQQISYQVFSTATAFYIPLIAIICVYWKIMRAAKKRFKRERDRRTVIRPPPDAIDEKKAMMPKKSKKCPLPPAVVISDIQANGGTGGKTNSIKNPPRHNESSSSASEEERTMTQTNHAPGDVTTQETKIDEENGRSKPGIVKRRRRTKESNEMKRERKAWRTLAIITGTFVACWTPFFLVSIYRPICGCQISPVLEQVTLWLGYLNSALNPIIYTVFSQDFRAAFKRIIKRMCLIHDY

wild type C. elegans = experiment: Paralysis assay on agar plates, wild type C. elegans; format: in vivo, Caenorhabditis elegans
[5] = biological target: T1, Drosophila 5-HT1 orthologue (5HT1A) (Drosophila melanogaster, UniProt P28285); experiment: Paralysis assay, 5-HT quint expressing Drosophila 5-HT1 orthologue in cholinergic motor neurons; format: in vivo
T1 sequence (P28285 1-834): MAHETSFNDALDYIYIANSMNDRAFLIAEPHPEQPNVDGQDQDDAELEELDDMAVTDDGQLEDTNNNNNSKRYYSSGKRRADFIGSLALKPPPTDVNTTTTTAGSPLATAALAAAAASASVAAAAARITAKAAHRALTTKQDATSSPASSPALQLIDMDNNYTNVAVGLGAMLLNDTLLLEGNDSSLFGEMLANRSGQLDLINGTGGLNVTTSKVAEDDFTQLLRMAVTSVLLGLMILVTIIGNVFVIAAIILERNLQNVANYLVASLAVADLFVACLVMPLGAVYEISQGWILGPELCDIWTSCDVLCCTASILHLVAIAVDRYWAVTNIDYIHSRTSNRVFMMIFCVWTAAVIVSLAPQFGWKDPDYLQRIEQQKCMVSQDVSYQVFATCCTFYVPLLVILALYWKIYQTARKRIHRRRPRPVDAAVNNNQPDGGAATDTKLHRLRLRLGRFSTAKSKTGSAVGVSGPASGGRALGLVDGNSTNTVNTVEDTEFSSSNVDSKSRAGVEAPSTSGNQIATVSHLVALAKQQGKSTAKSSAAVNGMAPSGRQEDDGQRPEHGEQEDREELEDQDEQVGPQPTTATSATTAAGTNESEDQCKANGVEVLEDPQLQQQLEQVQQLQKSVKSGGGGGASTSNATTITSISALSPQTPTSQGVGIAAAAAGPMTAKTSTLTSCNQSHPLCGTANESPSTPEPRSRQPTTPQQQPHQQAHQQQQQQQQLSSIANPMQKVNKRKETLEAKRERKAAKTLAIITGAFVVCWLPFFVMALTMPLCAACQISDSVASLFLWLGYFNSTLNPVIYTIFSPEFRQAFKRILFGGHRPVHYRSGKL

[6] = biological target: T2, human 5-HT1A receptor (HTR1A) (Homo sapiens, UniProt P08908); experiment: Paralysis assay, 5-HT quint expressing human 5-HT1A receptor in cholinergic motor neurons; format: in vivo, Caenorhabditis elegans
T2 construct: GFP (C); clone ID: 9020250
T2 sequence (P08908 1-422): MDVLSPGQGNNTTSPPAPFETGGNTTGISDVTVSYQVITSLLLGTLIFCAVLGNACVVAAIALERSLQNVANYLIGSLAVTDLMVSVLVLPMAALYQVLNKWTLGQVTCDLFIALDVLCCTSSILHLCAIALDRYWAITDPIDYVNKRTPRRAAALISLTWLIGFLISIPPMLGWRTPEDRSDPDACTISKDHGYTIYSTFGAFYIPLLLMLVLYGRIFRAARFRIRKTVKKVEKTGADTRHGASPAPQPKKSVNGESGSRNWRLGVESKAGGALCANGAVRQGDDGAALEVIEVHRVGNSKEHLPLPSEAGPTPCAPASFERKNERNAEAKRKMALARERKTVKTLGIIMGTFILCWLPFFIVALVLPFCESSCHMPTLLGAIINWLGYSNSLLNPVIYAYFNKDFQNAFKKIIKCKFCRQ

[7] = test system: 5-HT quint animals (C. elegans lacking all previously identified 5-HT receptors); experiment: Paralysis assay, quintuple 5-HT receptor null C. elegans (5-HT quint); format: in vivo, Caenorhabditis elegans; conditions: for effect on locomotion: 5-HT quint, 5-HT
[8] = test system: C. elegans 5-HT1-like receptor SER-4; experiment: in vivo; format: in vivo, Caenorhabditis elegans; conditions: paralysis screen, FIGS. 9A-9B
[9] = test system: Drosophila histamine-gated Cl- channel (HisCl1)
[10] = biological target: H. contortus (Hco) LGC-55 orthologue (Haemonchus contortus, UniProt D7F471); experiment: in vivo
Sequence of H. contortus (Hco) LGC-55 orthologue (D7F471 entry or part of it): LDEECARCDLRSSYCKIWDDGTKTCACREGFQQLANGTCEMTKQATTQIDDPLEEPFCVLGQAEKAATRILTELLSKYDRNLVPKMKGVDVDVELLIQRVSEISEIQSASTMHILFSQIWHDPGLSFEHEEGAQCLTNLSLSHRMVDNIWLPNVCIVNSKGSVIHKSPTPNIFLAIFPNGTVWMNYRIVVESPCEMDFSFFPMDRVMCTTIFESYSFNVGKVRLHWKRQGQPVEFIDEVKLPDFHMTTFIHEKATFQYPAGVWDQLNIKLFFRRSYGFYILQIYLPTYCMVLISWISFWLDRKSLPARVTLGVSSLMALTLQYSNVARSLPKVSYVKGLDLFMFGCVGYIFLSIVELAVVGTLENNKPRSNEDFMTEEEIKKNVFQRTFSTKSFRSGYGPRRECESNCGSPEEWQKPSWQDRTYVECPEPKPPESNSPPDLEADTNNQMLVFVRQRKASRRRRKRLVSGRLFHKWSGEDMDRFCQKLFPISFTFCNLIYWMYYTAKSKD

[11] = test system: TA quad animals (lack all previously identified TA receptors); experiment: Paralysis assay, quadruple TA receptor null C. elegans (TA quad); format: in vivo, Caenorhabditis elegans
[12] = biological target: C. elegans LGC-55 (TA-gated Cl- channel) (Caenorhabditis elegans, UniProt G5EEC1); experiment: Paralysis assay, TA quad expressing C. elegans LGC-55
Sequence of C. elegans LGC-55 (TA-gated Cl- channel) (G5EEC1 entry or part of it): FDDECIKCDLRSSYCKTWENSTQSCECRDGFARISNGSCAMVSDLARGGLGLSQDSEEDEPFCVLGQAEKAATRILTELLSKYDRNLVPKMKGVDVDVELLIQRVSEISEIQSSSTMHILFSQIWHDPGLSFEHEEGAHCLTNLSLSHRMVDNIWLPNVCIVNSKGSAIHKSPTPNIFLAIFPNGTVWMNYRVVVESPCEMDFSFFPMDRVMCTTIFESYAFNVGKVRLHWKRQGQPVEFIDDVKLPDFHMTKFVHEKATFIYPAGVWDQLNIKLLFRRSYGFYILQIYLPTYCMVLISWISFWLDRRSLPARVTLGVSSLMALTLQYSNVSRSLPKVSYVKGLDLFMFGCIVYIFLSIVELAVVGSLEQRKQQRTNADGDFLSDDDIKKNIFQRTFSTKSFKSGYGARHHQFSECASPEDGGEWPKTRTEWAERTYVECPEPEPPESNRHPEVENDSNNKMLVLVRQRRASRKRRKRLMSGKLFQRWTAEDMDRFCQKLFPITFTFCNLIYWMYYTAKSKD

bus-17 (e2800) mutants = experiment: whole plant or invertebrate; format: in vivo; conditions: Caenorhabditis elegans, 10 min, read-out: EC50 of 5-HT-dependent paralysis
[13] = biological target: H. contortus (Hco) MOD-1 orthologue (Haemonchus contortus, UniProt M9MR50); experiment: in vivo
Sequence of H. contortus (Hco) MOD-1 orthologue (M9MR50 entry or part of it): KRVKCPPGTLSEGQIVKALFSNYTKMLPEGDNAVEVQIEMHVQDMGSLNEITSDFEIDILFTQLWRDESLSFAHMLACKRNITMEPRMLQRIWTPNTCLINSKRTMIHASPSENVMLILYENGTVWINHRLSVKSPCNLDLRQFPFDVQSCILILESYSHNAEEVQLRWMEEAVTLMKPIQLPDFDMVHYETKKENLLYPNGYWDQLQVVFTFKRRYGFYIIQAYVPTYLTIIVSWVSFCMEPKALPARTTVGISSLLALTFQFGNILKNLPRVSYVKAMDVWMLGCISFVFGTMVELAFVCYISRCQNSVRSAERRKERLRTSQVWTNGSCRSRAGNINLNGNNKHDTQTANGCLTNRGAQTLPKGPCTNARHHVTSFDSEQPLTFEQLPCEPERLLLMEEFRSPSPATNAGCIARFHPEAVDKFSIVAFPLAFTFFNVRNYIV

[14] = exogenous 5-HT (1 mM), hypotonic

SMILES: CSCCC(NC(=O)C(Cc1ccc(O)cc1)NC(=O)Cc1c[nH]c2ccccc12)C(=O)NC(C)C(=O)O [CD3-276, N-[(Indol-3)acetyl]-D-Tyrosyl-Methionyl-D-alanine]
- FF (n = 2 mean), Minimum Effective Concentration (MEC) [1]: >100 µg/mL
- activity against heartworm [2]: inactive
- HW (n = 2 mean), minimum efficacious dose (MED) [2]: >100 µg/mL
- HC (n = 2 mean), minimum efficacious dose (MED) [3]: >100 µg/mL

SMILES: COc1ccc2[nH]c(CC(C)C)c(/C=C/C(=O)c3ccncc3)c2c1 [CD3-984]
- activity from observations of nematode locomotion [4]: at least moderate activity with favorable species selectivity

SMILES: COc1ccc2[nH]c(C)c(/C=C/C(=O)c3ccncc3)c2c1 [CD3-719]
- activity from observations of nematode locomotion [4]: decreased activity

SMILES: CNS(=O)(=O)Cc1ccc2[nH]cc(CCN(C)C)c2c1 [sumatriptan, sumatriptan succinate]
- effect on locomotion (wild type C. elegans; 0.5 mM sumatriptan, hypotonic): no effect on locomotion
- effect on locomotion ([4]; 0.5 mM sumatriptan): no effect on locomotion
- effect on locomotion ([5]; 0.5 mM sumatriptan): no effect on locomotion
- effect on locomotion ([6]; 0.5 mM sumatriptan): no effect on locomotion
- paralysis ([6]; sumatriptan at higher concentrations (1 mM)): failed to fully paralyze

SMILES: O=C(/C=C/c1c[nH]c2ccc(O)cc12)c1ccncc1 [CD3-718, trans-3-(5-hydroxy-1H-indol-3-yl)-1-(4-pyridinyl)-2-propen-1-one]
- paralysis (wild type C. elegans; 15 minutes exposure): causing paralysis
- paralysis ([7]; 5-HT quint animals, 15 minutes exposure): not in animals that do not express any previously identified 5-HT receptors
- paralysis ([4]; animals expressing the nematode 5-HT1 receptor (SER-4), 15 minutes exposure): causing paralysis
- selectivity for C. elegans 5-HT1 versus human 5-HT1 [8]: remarkable selectivity; also recorded: remarkably selective
- FF (n = 2 mean), Minimum Effective Concentration (MEC) [1]: >100 µg/mL
- activity against heartworm [2]: inactive
- HW (n = 2 mean), minimum efficacious dose (MED) [2]: >100 µg/mL
- HC (n = 2 mean), minimum efficacious dose (MED) [3]: >100 µg/mL

SMILES: Cl.Cl.NCCc1c[nH]cn1 [histamine, histamine dihydrochloride]
- paralysis (wild type C. elegans; 2 mM histamine, NGM plates): did not cause paralysis
- paralysis ([9]; 2 mM histamine, NGM plates): did not cause paralysis
- paralysis ([9]; 2 mM histamine, hypotonic assay conditions): caused significance paralysis
- paralysis ([9]; 10 mM histamine, NGM plates): caused significance paralysis

SMILES: NCCc1ccc(O)cc1 [TA, tyramine]
- EC50 [10]: ~100 µM
- effect on locomotion [11]: no effect on locomotion
- EC50 [12]: ~100 µM

SMILES: NCCc1c[nH]c2ccc(O)cc12 [5-HT, Serotonin]
- paralysis (wild type C. elegans; 1 mM 5-HT, 10 min exposure, hypotonic non-NGM agar): 50%
- paralysis (wild type C. elegans; 15 mM 5-HT, NGM agar plates): rapid paralysis
- EC50 (wild type C. elegans; Caenorhabditis elegans, 10 min, isotonic NGM agar plates, 10 min, read-out: EC50 of 5-HT-dependent paralysis): 11500 µM
- EC50 (wild type C. elegans; Caenorhabditis elegans, hypotonic (agar alone without NGM, salt-free), read-out: EC50 of 5-HT-dependent paralysis): ~400 µM
- EC50 (wild type C. elegans; hypotonic (agar alone without NGM, salt-free), read-out: EC50 of 5-HT-dependent paralysis): ~500 µM
- EC50 (wild type C. elegans; isotonic NGM agar plates, 10 min, read-out: EC50 of 5-HT-dependent paralysis): ~12000 µM
- effect on locomotion ([7]; NGM agar plates): no effect on locomotion
- effect on locomotion ([7]; hypotonic non-NGM agar plates): no effect on locomotion
- paralysis ([4]; 5-HT quint expressing SER-4 in AIB interneurons (Pnpr-9), 5-HT (1 mM), hypotonic): rapidly paralyzed
- paralysis ([4]; 5-HT quint expressing SER-4 in cholinergic motor neurons (Punc-17β), 5-HT (1 mM), hypotonic): rapidly paralyzed
- paralysis ([4]; SER-4 quad (ser-5;mod-1;ser-7 ser-1 quadruple null), 15 mM 5-HT, NGM agar plates): rapid paralysis
- locomotion [5, 14]: dramatically inhibited
- locomotion [6, 14]: dramatically inhibited
- EC50 (bus-17 (e2800) mutants): ~240 µM
- EC50 [13]: ~200 µM

SMILES: O=C(/C=C/c1c[nH]c2ccccc12)c1ccccc1 [CD3-664]
- FF (n = 2 mean), Minimum Effective Concentration (MEC) [1]: >100 µg/mL
- activity against heartworm [2]: active against heartworm
- HW (n = 2 mean), minimum efficacious dose (MED) [2]: 100 µg/mL
- HC (n = 2 mean), minimum efficacious dose (MED) [3]: >100 µg/mL

SMILES: CCCc1[nH]c2ccc(OC)cc2c1/C=C/C(=O)c1ccncc1 [CD3-980]
- activity from observations of nematode locomotion [4]: at least moderate activity with favorable species selectivity

SMILES: Nc1ccc(CCN2CCN(c3cccc(C(F)(F)F)c3)CC2)cc1 [PAPP, p-amino-phenethyl-m-trifluoromethylphenyl piperazine]
- EC50 (wild type C. elegans; Caenorhabditis elegans, 0.25 h, 15 min exposure, hypotonic, read-out: EC50 of PAPP-dependent paralysis): 370 µM
- EC50 ([7]; Caenorhabditis elegans, 0.25 h, read-out: EC50 of PAPP-dependent paralysis): 680 µM
- EC50 [4]: 170 µM

SMILES: CCCN(CCC)C1CCc2cccc(O)c2C1 (stereo not shown) [8-OH-DPAT, 8-hydroxy-2-(di-n-propylamino) tetralin]
- effect on locomotion ([4]; 8-OH-DPAT at 2 mM, hypotonic): no effect on locomotion
- effect on locomotion ([5]; 8-OH-DPAT at 2 mM, hypotonic): no effect on locomotion
- paralysis ([6]; 8-OH-DPAT (2 mM), hypotonic): rapidly paralyzed
